Data: PubChem BioAssay AID330 (DTP/NCI, 2004)
Values joined by “and” are separate entries in the source; they are usually repeats but may differ in a detail not shown here. Equal entries are not always repeated. Inconclusive results and toxic doses are left out.

System: P388 leukemia ip, CD2F1 mice, survival T/C
Assay: NCI In Vivo Anticancer Drug Screen. Data for tumor model P388 Leukemia (intraperitoneal) in CD2F1 (CDF1) mice
Details: endpoint: median survival time, higher = longer survival
In short: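 Mice carrying the transplanted tumor received test compound or vehicle. Survival was recorded in each group, and the value is the treated-group measurement divided by that of the vehicle-treated control group.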

[1] = dose: 50.0 mg/kg/injection, schedule: Q01DX005 (ip), vehicle: saline with Tween-80
[2] = dose: 100.0 mg/kg/injection, schedule: Q01DX005 (ip), vehicle: saline with Tween-80
[3] = dose: 200.0 mg/kg/injection, schedule: Q01DX005 (ip), vehicle: saline with Tween-80
[4] = dose: 50.0 mg/kg/injection, schedule: Q01DX005 (ip), vehicle: Klucel (hydroxypropylcellulose) (HPC)
[5] = dose: 100.0 mg/kg/injection, schedule: Q01DX005 (ip), vehicle: Klucel (hydroxypropylcellulose) (HPC)
[6] = dose: 200.0 mg/kg/injection, schedule: Q01DX005 (ip), vehicle: Klucel (hydroxypropylcellulose) (HPC)
[7] = dose: 25.0 mg/kg/injection, schedule: Q01DX009 (ip), vehicle: saline
[8] = dose: 50.0 mg/kg/injection, schedule: Q01DX009 (ip), vehicle: saline
[9] = dose: 100.0 mg/kg/injection, schedule: Q01DX009 (ip), vehicle: saline
[10] = dose: 50.0 mg/kg/injection, schedule: Q01DX009 (ip), vehicle: suspension in saline
[11] = dose: 100.0 mg/kg/injection, schedule: Q01DX009 (ip), vehicle: suspension in saline
[12] = dose: 200.0 mg/kg/injection, schedule: Q01DX009 (ip), vehicle: suspension in saline
[13] = dose: 50.0 mg/kg/injection, schedule: Q01DX009 (ip), vehicle: saline with Tween-80
[14] = dose: 100.0 mg/kg/injection, schedule: Q01DX009 (ip), vehicle: saline with Tween-80
[15] = dose: 200.0 mg/kg/injection, schedule: Q01DX009 (ip), vehicle: saline with Tween-80
[16] = dose: 12.5 mg/kg/injection, schedule: Q01DX009 (ip), vehicle: saline with Tween-80
[17] = dose: 25.0 mg/kg/injection, schedule: Q01DX009 (ip), vehicle: saline with Tween-80
[18] = dose: 25.0 mg/kg/injection, schedule: Q01DX005 (ip), vehicle: saline with Tween-80

`c1ccc2c(c1)Cc1ccnnc1-2` was tested, and the T/C [1] was 103 % of control, the T/C [2] was 103 % of control and the T/C [3] was 92 % of control.

For `CC1=NN(C(=O)CC(=O)Nc2ccc(C(=O)O)cc2)C(=O)C1N=Nc1ccc(I)cc1` (stereo unspecified), the T/C (dose: 100.0 mg/kg/injection, schedule: Q04DX002 (ip), vehicle: saline with Tween-80) was 96 % of control, the T/C (dose: 200.0 mg/kg/injection, schedule: Q04DX002 (ip), vehicle: saline with Tween-80) was 98 % of control and the T/C (dose: 400.0 mg/kg/injection, schedule: Q04DX002 (ip), vehicle: saline with Tween-80) was 120 % of control.

`C=CCN(CC=C)C(=O)CCN1CC1` was tested, and the T/C (dose: 2.5 mg/kg/injection, schedule: Q04DX003 (ip), vehicle: saline) was 108 % of control, the T/C (dose: 5.0 mg/kg/injection, schedule: Q04DX003 (ip), vehicle: saline) was 87 % of control and the T/C (dose: 10.0 mg/kg/injection, schedule: Q04DX003 (ip), vehicle: saline) was 104 % of control.

For `O=C(O)CCc1c(-c2ccccc2)[nH]c2ccccc12`, the T/C (dose: 60.0 mg/kg/injection, schedule: Q01DX005 (ip), vehicle: Klucel + Tween-80) was 100 % of control, the T/C (dose: 120.0 mg/kg/injection, schedule: Q01DX005 (ip), vehicle: Klucel + Tween-80) was 100 % of control and the T/C (dose: 240.0 mg/kg/injection, schedule: Q01DX005 (ip), vehicle: Klucel + Tween-80) was 100 % of control.

In the case of `Nc1ccc(O)c(=O)cc1`, the T/C [4] is reported as 96 % of control, the T/C [5] is reported as 95 % of control and the T/C [6] is reported as 92 % of control.

`O=c1[nH][nH]c(=O)c2c1CCCC2` was tested, and the T/C [7] was 107 % of control, the T/C [8] was 95 % of control and the T/C [9] was 100 % of control. The T/C (dose: 200.0 mg/kg/injection, schedule: Q01DX009 (ip), vehicle: saline) was 101 % of control.

`Cc1cc(NS(=O)(=O)c2ccc(Nc3ccnc4cc(Cl)ccc34)cc2)no1` was tested, and the T/C [1] was 92 % of control, the T/C [2] was 86 % of control and the T/C [3] was 92 % of control.

In the case of `Cc1ccc(N2C(=O)CSC2=S)cc1C`, the T/C [10] is reported as 90 % of control, the T/C [11] is reported as 90 % of control and the T/C [12] is reported as 103 % of control.

For `NC(=NC(=O)c1ccccc1)N(CCc1ccccc1)CCc1ccccc1`, the T/C (dose: 60.0 mg/kg/injection, schedule: Q01DX005 (ip), vehicle: saline with Tween-80) was 104 % of control, the T/C (dose: 120.0 mg/kg/injection, schedule: Q01DX005 (ip), vehicle: saline with Tween-80) was 100 % of control and the T/C (dose: 240.0 mg/kg/injection, schedule: Q01DX005 (ip), vehicle: saline with Tween-80) was 109 % of control.

For `Cc1ccc(C2CCC(C#N)=CN2C)cc1` (stereo unspecified), the T/C (dose: 50.0 mg/kg/injection, schedule: Q01DX005 (ip), vehicle: Klucel + Tween-80) was 94 % of control, the T/C (dose: 100.0 mg/kg/injection, schedule: Q01DX005 (ip), vehicle: Klucel + Tween-80) was 98 % of control and the T/C (dose: 200.0 mg/kg/injection, schedule: Q01DX005 (ip), vehicle: Klucel + Tween-80) was 100 % of control.

In the case of `CC(=O)Nc1ccc(S(=O)(=O)CC(N)=O)cc1`, the T/C (dose: 12.5 mg/kg/injection, schedule: Q01DX009 (ip), vehicle: saline) is reported as 105 % of control, the T/C [7] is reported as 104 % of control and the T/C [8] is reported as 107 % of control. The T/C [10] was 97 % of control.

In the case of `Cc1ccc(S(=O)(=O)NC(CC(=O)OCc2ccccc2)C(=O)OCc2ccccc2)cc1` (stereo unspecified), the T/C [13] is reported as 101 % of control, the T/C [14] is reported as 86 % of control and the T/C [15] is reported as 90 % of control.

For `Cc1ccccc1NCC#N`, the T/C [16] was 100 % of control, the T/C [17] was 100 % of control and the T/C [13] was 104 % of control.

With `COc1ccc(-c2sc(C)nc2O)cc1` the T/C [13] was 101 % of control, the T/C [14] was 94 % of control and the T/C [15] was 98 % of control.

In the case of `CCN(CC)CCNc1ccc(C)c2sc3ccccc3c(=O)c12` (tested in a mixture with another compound), the T/C [8] is reported as 160 % of control, the T/C [9] is reported as 185 % of control and the T/C (dose: 200.0 mg/kg/injection, schedule: Q04DX003 (ip), vehicle: saline) is reported as 161 % of control. The T/C (dose: 300.0 mg/kg/injection, schedule: Q04DX003 (ip), vehicle: saline) was 95 % of control.

In the case of `COc1ccc(C2NC(C(=O)O)CS2)cc1OC` (stereo unspecified), the T/C [10] is reported as 95 % of control, the T/C [11] is reported as 95 % of control and the T/C [12] is reported as 87 % of control and 97 % of control.

In the case of `c1ccc2sc(-c3ccncc3)nc2c1`, the T/C [13] is reported as 102 % of control, the T/C [14] is reported as 99 % of control and the T/C [15] is reported as 108 % of control.

With `CCOCCOCCOc1cccc2cccnc12` the T/C [4] was 103 % of control, the T/C [5] was 107 % of control and the T/C [6] was 107 % of control.

`N#CC(Br)CNC(=O)Oc1ccccc1` (stereo unspecified) was tested, and the T/C [4] was 104 % of control, the T/C [5] was 106 % of control and the T/C [6] was 105 % of control.

With `O=C(O)Cc1noc2ccccc12` the T/C (dose: 25.0 mg/kg/injection, schedule: Q04DX003 (ip), vehicle: Klucel (hydroxypropylcellulose) (HPC)) was 92 % of control, the T/C (dose: 50.0 mg/kg/injection, schedule: Q04DX003 (ip), vehicle: Klucel (hydroxypropylcellulose) (HPC)) was 91 % of control and the T/C (dose: 100.0 mg/kg/injection, schedule: Q04DX003 (ip), vehicle: Klucel (hydroxypropylcellulose) (HPC)) was 91 % of control. The T/C (dose: 200.0 mg/kg/injection, schedule: Q04DX003 (ip), vehicle: Klucel (hydroxypropylcellulose) (HPC)) was 90 % of control.

`CCOC(=O)c1c2n(c3ccccc13)C1(C(=O)OCC)CC1(C(C)=O)C1CN21` (stereo unspecified) was tested, and the T/C [18] was 106 % of control, the T/C [1] was 101 % of control and 108 % of control and the T/C [2] was 106 % of control and 120 % of control. The T/C [3] was 117 % of control and 119 % of control.

In the case of `CCCCC(=O)N/N=C/c1ccc([N+](=O)[O-])s1`, the T/C [13] is reported as 95 % of control, the T/C [14] is reported as 99 % of control and the T/C [15] is reported as 101 % of control.

For `C/C1=C\CC(O)/C(C)=C/CC2=CCC(C(C)C)C2(C)CC1` (stereo unspecified), the T/C (dose: 4.0 mg/kg/injection, schedule: Q01DX009 (ip), vehicle: Klucel (hydroxypropylcellulose) (HPC)) was 101 % of control, the T/C (dose: 8.0 mg/kg/injection, schedule: Q01DX009 (ip), vehicle: Klucel (hydroxypropylcellulose) (HPC)) was 101 % of control and the T/C (dose: 16.0 mg/kg/injection, schedule: Q01DX009 (ip), vehicle: Klucel (hydroxypropylcellulose) (HPC)) was 102 % of control. For the same compound, the T/C (dose: 32.0 mg/kg/injection, schedule: Q01DX009 (ip), vehicle: Klucel (hydroxypropylcellulose) (HPC)) was 102 % of control.

For `C/C(=N/NC(=S)NCc1ccccc1)c1ncccn1`, the T/C (dose: 12.5 mg/kg/injection, schedule: Q01DX005 (ip), vehicle: saline with Tween-80) was 100 % of control, the T/C [18] was 100 % of control and the T/C [1] was 105 % of control and 98 % of control.

With `Nc1nccc2c1ncn2C1OC(CO)C(O)C1O` (stereo unspecified) the T/C (dose: 4.67 mg/kg/injection, schedule: Q03HX024 (ip), vehicle: saline with Tween-80) was 110 % of control, the T/C (dose: 4.69 mg/kg/injection, schedule: Q03HX024 (ip), vehicle: saline with Tween-80) was 114 % of control and the T/C (dose: 9.38 mg/kg/injection, schedule: Q03HX024 (ip), vehicle: saline with Tween-80) was 111 % of control and 112 % of control. For the same compound, the T/C [16] was 94 % of control and 97 % of control, the T/C (dose: 18.75 mg/kg/injection, schedule: Q03HX024 (ip), vehicle: saline with Tween-80) was 97 % of control and the T/C [17] was 92 % of control and 93 % of control. The T/C (dose: 37.5 mg/kg/injection, schedule: Q03HX024 (ip), vehicle: saline with Tween-80) was 112 % of control and 117 % of control, the T/C [14] was 88 % of control and 94 % of control and the T/C [15] was 86 % of control.

For `Cc1cc(Br)c(NC(=S)SCc2ccc(Cl)cc2)cc1C`, the T/C [10] was 101 % of control, the T/C [11] was 107 % of control and the T/C [12] was 98 % of control.

For `O=P(O)(O)c1ccccc1P(=O)(O)O`, the T/C (dose: 60.0 mg/kg/injection, schedule: Q01DX005 (ip), vehicle: saline) was 105 % of control and the T/C (dose: 120.0 mg/kg/injection, schedule: Q01DX005 (ip), vehicle: saline) was 93 % of control.

For `CC1CC[N+](C)([B-](F)(F)F)CC1` (stereo unspecified), the T/C (dose: 50.0 mg/kg/injection, schedule: Q01DX005 (ip), vehicle: saline) was 100 % of control and the T/C (dose: 100.0 mg/kg/injection, schedule: Q01DX005 (ip), vehicle: saline) was 106 % of control.

For `Cc1c(C)c(C)c(S(=O)(=O)N2CCN(S(=O)(=O)c3c(C)c(C)c(C)c(C)c3C)CC2)c(C)c1C`, the T/C [1] was 100 % of control, the T/C [2] was 97 % of control and the T/C [3] was 96 % of control.

In the case of `COc1cc(C2c3cc(O)c(OC)cc3CC(O)(CO)C2CO)ccc1O` (stereo unspecified), the T/C (dose: 23.75 mg/kg/injection, schedule: Q01DX005 (ip), vehicle: Klucel (hydroxypropylcellulose) (HPC)) is reported as 100 % of control, the T/C (dose: 47.5 mg/kg/injection, schedule: Q01DX005 (ip), vehicle: Klucel (hydroxypropylcellulose) (HPC)) is reported as 95 % of control and the T/C (dose: 95.0 mg/kg/injection, schedule: Q01DX005 (ip), vehicle: Klucel (hydroxypropylcellulose) (HPC)) is reported as 86 % of control. For the same compound, the T/C (dose: 190.0 mg/kg/injection, schedule: Q01DX005 (ip), vehicle: Klucel (hydroxypropylcellulose) (HPC)) was 90 % of control.
